Source: patent US11731955B2, “Crystal habit of quinoline derivative and preparation method for crystalline powder thereof” (CHIA TAI TIANQING PHARMACEUTICAL GROUP CO., LTD, priority 2018, dated 2023)
Counter-ions that a name gives are not always drawn.

Columns and labels:
Assay type in all cases: physicochemical
[1] = Specific surface area by multipoint BET measurement; conditions: for A (specific surface area): pulverized powders, dihydrochloride
Protocol: In the present application, the specific surface area A used herein refers to the total area per unit mass (m^2/g), as determined by multipoint BET specific surface area measurement.
The specific surface area was determined by multipoint BET specific surface area measurement, in which the absolute adsorption quantity of nitrogen in a sample was measured under different partial pressures, and the single-layer adsorption quantity was calculated by the BET theory, thus giving the specific surface area.

[2] = Determination of solubility (saturation concentration); conditions: for solubility thermodynamic at 24 h: aqueous buffer, thermodynamic from solid, shaker at 37° C.
Protocol: 14.16 mg of the crystalline powder of the compound of the formula II acquired in Example 1 was dissolved, shaken overnight (24 hours) on a shaker at 37° C. and cooled to room temperature. The saturation concentration was measured using the supernatant. As a result, the saturation concentrations in the phosphoric acid solutions at pH 6.8 and 7.0 for 24 hours were 0.8 and 0.3 μg/mL, respectively.

[3] = Particle-size distribution by laser particle size analyzer; conditions: laser particle-size distribution of pulverized powders; dihydrochloride
Text: “X10” as used herein refers to the particle size for 10% of the particles in the particle size distribution, i.e., the fraction of particles smaller than this particle size accounts for 10% of all particles; “X50” refers to the particle size for 50% of the particles in the particle size distribution, i.e., the fraction of particles smaller than this particle size accounts for 50% of all particles; “X90” refers to a particle size for 90% of the particles in the particle size distribution, i.e., the fraction of particles smaller than this particle size accounts for 90% of all particles.
The particle-size distribution of the materials was determined by laser. Instrument: fully automatic dry and wet two-in-one laser particle size analyzer, VIBRI (HELOSBR).

[4] = Dissolution properties of powders by basket method; conditions: 100 rpm, dihydrochloride; for Cumulative dissolution % (0.1 mol/L hydrochloric acid): 1000 mL
Protocol: The dissolution properties of powders 1 and 2 in 1000 mL of 0.1 mol/L aqueous hydrochloric acid solution and a standard medium of 10 mM phosphate buffer containing 0.075% SDS, pH 6.8 were measured by basket method at 100 rpm and compared.

SMILES	specific surface area ([1]; bulk crystal recrystallized in ethanol (Comparative Example 1)) [m^2/g]	Biopharmaceutical Classification System (BCS) solubility classification [2]	solubility thermodynamic at 24 h ([2]; phosphoric acid solution pH 6.8, 24 hours) [µg/mL]	solubility thermodynamic at 24 h ([2]; phosphoric acid solution pH 7.0, 24 hours) [µg/mL]	A (specific surface area) [1] [m^2/g]	X50 [3] [μm]	X90 [3] [μm]	Cumulative dissolution % (10 mM phosphate buffer containing 0.075% SDS, pH 6.8) ([4]; 3 min) [%]	Cumulative dissolution % (0.1 mol/L hydrochloric acid) ([4]; 3 min) [%]	Cumulative dissolution % (10 mM phosphate buffer containing 0.075% SDS, pH 6.8) ([4]; 5 min) [%]	Cumulative dissolution % (0.1 mol/L hydrochloric acid) ([4]; 5 min) [%]
COc1cc2c(Oc3ccc4[nH]c(C)cc4c3F)ccnc2cc1OCC1(N)CC1 [Anlotinib dihydrochloride, reference compound]	3.4750										
COc1cc2c(Oc3ccc4[nH]c(C)cc4c3F)ccnc2cc1OCC1(N)CC1 [Example 1, Anlotinib dihydrochloride]		low solubility	0.8	0.3							
COc1cc2c(Oc3ccc4[nH]c(C)cc4c3F)ccnc2cc1OCC1(N)CC1 [Powder 1, Anlotinib dihydrochloride]					11.09 ± 0.04	3.96	64.89	77.4	89.6	90.2	94.2
COc1cc2c(Oc3ccc4[nH]c(C)cc4c3F)ccnc2cc1OCC1(N)CC1 [Powder 2, Anlotinib dihydrochloride]					13.07 ± 0.05	2.66	14.01	80.1	93.7	86.4	95.8
